Measured values reported in patent publication US9193736B2, “PDE 10a inhibitors for the treatment of type II diabetes” (Janssen Pharmaceutica, NV, priority 2013, dated 2015).
Counter-ions that a name gives are not always drawn.

Experiments:
[1] = PDE10a perfused brain permeability study: plasma concentrations at 30 and 120 min, brain concentration at 120 min, brain/plasma ratio
Description: PDE10a-Brain Permeability Assay
A. PDE10a-Perfused Brain Permeability Study Protocol
Drug administration by oral gavage, subcutaneous injection or intravenous was carried out using male Sprague Dawley rats under IACUC protocol (SH-MET3010). Male Sprague Dawley rats (Charles River) ˜300-350 g were maintained on a 4% standard rodent diet (Test Diet 5001). They are allowed ad libitum access to water and food. Room temperature was maintained at 64° F. and humidity at 30-70%.
Three animals per compound were provided a dose of 2 mg/mL in 20% HpbCD/Tris pH 8 by tail i.v. or 30 mpk p.o. or s.c. in 20% HpbCD/Tris pH 8, with PDE10a antagonists. A first blood sample was collected at 30 min via retro-orbital sinus (anesthetic by 70% CO2/30% O2) into heparinzed plasma separator tubes. The blood was centrifuged and 100 μL plasma was placed into a 96 well plate and saved on dry ice.
After the 120 min, the final blood sample was collected via retro-orbital sinus under anesthesia by IP 0.5 cc injection of a 4/1 mixture of Ketaset: AnaSed [(prepared 10 mL Ketaset (100 mg/mL Ketamine)+2.5 mL AnaSed (20 mg/mL Xylazine)]. The rats were then perfused with 400 mL heparinized saline (10,000 units/L) through the left ventricle of the heart; the brains were then removed (not including the medulla), weighed and homogenized in PBS (4 mL/g tissue). The samples were stored at −80° C. and submitted for chemical analysis of blood and brain concentrations. Endpoints of sample analysis consists of the plasma concentrations at 30 and 120 min, plus brain concentrations at 120 min.

[2] = molecular target: Rat recombinant PDE10a (rPDE10a) (Rattus norvegicus (Rat), UniProt Q9QYJ6); experiment: In vitro assay PDE10a: rat recombinant PDE10a SPA with 3H-cAMP substrate, IC50; type: biochemical; details: 60 nM cAMP, read-out: rPDE10a2 IC50
Chain of Rat recombinant PDE10a (rPDE10a) (Q9QYJ6 whole entry): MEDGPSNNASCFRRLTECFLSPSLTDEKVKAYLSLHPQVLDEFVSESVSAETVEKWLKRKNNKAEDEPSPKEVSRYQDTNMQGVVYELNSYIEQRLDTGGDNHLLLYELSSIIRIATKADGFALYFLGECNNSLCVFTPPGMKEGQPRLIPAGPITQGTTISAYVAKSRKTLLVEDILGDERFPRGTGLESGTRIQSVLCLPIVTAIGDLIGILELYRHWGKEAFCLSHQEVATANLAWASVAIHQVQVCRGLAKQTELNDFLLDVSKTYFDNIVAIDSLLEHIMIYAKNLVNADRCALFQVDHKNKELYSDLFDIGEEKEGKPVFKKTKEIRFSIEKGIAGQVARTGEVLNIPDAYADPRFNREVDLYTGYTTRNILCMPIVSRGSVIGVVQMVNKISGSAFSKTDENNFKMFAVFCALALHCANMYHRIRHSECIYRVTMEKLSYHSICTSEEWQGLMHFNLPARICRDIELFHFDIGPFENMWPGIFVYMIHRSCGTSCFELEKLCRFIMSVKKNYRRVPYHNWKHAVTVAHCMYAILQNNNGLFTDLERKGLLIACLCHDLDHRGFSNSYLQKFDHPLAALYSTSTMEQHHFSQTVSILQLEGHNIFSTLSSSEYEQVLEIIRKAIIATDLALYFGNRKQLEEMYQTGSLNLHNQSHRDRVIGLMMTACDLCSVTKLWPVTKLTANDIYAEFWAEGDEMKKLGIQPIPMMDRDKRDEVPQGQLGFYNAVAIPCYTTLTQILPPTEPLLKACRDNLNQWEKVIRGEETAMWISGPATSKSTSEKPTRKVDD
Summary of the method: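 Enzyme expressed in Sf9 cells via baculovirus and Ni-sepharose purified; reaction with 3H-cAMP ran 60 min at rt, stopped with PDE SPA beads. Compounds diluted in DMSO at 100-fold final concentration; blanks omitted enzyme.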

[3] = molecular target: Human recombinant PDE10A2 (Homo sapiens (Human), UniProt Q9Y233); experiment: In vitro hPDE10a: human recombinant PDE10A2 scintillation proximity assay, IC50; type: biochemical; details: human recombinant PDE10A2, SPA, 60 nM cAMP; read-out: hPDE10a2 IC50
Chain of Human recombinant PDE10A2 (Q9Y233 267-1055): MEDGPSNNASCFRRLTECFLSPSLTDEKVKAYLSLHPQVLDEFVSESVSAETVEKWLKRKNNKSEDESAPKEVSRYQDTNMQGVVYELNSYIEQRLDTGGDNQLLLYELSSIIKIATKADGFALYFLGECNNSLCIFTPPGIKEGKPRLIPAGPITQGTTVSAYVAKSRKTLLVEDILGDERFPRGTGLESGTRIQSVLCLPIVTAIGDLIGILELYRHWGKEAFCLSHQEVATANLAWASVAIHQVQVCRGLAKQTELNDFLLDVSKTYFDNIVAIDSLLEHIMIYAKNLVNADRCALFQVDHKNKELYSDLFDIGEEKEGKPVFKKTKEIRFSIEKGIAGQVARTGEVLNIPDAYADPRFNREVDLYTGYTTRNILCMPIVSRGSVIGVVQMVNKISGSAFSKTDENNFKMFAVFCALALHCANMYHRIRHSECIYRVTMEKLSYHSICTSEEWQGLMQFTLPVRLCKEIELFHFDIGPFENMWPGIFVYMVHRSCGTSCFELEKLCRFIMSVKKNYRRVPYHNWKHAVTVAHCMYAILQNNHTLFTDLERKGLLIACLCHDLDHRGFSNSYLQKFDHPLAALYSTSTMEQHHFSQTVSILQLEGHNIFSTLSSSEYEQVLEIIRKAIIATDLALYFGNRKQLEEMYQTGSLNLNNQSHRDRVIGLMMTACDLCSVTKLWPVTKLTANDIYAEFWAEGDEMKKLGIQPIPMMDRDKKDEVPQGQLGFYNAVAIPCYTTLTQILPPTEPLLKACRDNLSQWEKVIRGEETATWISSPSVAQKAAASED
Summary of the method: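 Purified recombinant human PDE10A2 (Ni-sepharose) was assayed by SPA, counting [3H]-AMP product captured on yttrium silicate beads added in zinc sulphate stop solution. Inhibition was expressed as % of activity without compound, with a no-enzyme low control. Repeat data points were aggregated.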

[4] = male Sprague Dawley rats, 2 h, perfused or non-perfused brain

IC50 [2] [nM]	IC50 [3] [nM]	Compound	other results
–	–	C(=C\c1nc2c(N3CCOCC3)ccnn2c1-c1ccc(Sc2nnc[nH]2)nc1)/c1ccc2ccccc2n1 [Cpd 22, (E)-2-(2-(3-(6-(4H-1,2,4-Triazol-3-ylthio)pyridin-3-yl)-8-morpholinoimidazo[1,2-b]pyridazin-2-yl)vinyl)quinoline]	concentration at 2 h ([1]; male, Sprague-Dawley, rat, brain): 117 ng/g; Kp at 2 h ([1]; male, Sprague-Dawley, rat, brain/plasma): 0.17; concentration at 2 h ([1]; male, Sprague-Dawley, rat, plasma): 788 ng/mL
–	–	O=C(O)C(F)(F)F.O=C(O)CN1CCC(c2c(C#Cc3ccc4ccccc4n3)nc3c(N4CCOCC4)ccnn23)CC1 [Cpd 25, 2-(4-(8-Morpholino-2-(quinolin-2-ylethynyl)imidazo[1,2-b]pyridazin-3-yl)piperidin-1-yl)acetic acid trifluoroacetic acid salt]	Brain conc 2 h [1, 4]: 0 ng/g; Ratio Br/Pl Mean 2 h [1, 4]: 0; Plasma conc 2 h ([1]; male Sprague Dawley rats, 2 h, perfused or non-perfused brain study): 5.77 ng/mL
7	7	O=C(O)CC1CCN(c2c(/C=C/c3ccc4ccccc4n3)nc3c(N4CCOCC4)ccnn23)CC1 [Cpd 156, (E)-2-(1-(8-Morpholino-2-(2-(quinolin-2-yl)vinyl)imidazo[1,2-b]pyridazin-3-yl)piperidin-4-yl)acetic acid]	–
2	2	O=C(O)c1ccc(-c2c(C3CN(c4ccc5ccccc5n4)C3)nc3c(N4CCOCC4)ccnn23)cc1 [Cpd 157, 4-(8-Morpholino-2-(1-(quinolin-2-yl)azetidin-3-yl)imidazo[1,2-b]pyridazin-3-yl)benzoic acid]	–
10	21	C(=C\c1nc2c(N3CCOCC3)ccnn2c1-c1ccc(N2CCNCC2)nc1)/c1ccc2ccccc2n1 [Cpd 177, (E)-4-(3-(6-(piperazin-1-yl)pyridin-3-yl)-2-(2-(quinolin-2-yl)vinyl)imidazo[1,2-b]pyridazin-8-yl)morpholine trifluoroacetic acid salt]	–
2	2	CC(=O)NS(=O)(=O)c1ccc(-c2c(/C=C/c3ccc4ccccc4n3)nc3c(N4CCOCC4)ccnn23)cc1 [compound 36, (E)-N-((4-(8-Morpholino-2-(2-(quinolin-2-yl)vinyl)imidazo[1,2-b]pyridazin-3-yl)phenyl)sulfonyl)acetamide]	–
4	7	NS(=O)(=O)c1ccc(-c2c(CCc3ccc4ccccc4n3)nc3c(N4CCOCC4)ccnn23)cc1 [compound 38, 4-(8-Morpholino-2-(2-(quinolin-2-yl)ethyl)imidazo[1,2-b]pyridazin-3-yl)benzenesulfonamide]	–
5	8	CS(=O)(=O)Nc1ccc(-c2c(CCc3ccc4ccccc4n3)nc3c(N4CCOCC4)ccnn23)cc1 [compound 45, N-(4-(8-Morpholino-2-(2-(quinolin-2-yl)ethyl)imidazo[1,2-b]pyridazin-3-yl)phenyl)methanesulfonamide]	–
1	3	O=C(O)CCNC(=O)c1ccc(-c2c(CCc3ccc4ccccc4n3)nc3c(N4CCOCC4)ccnn23)cc1 [compound 46, 3-(4-(8-Morpholino-2-(2-(quinolin-2-yl)ethyl)imidazo[1,2-b]pyridazin-3-yl)benzamido)propanoic acid]	–
11	14	CS(=O)(=O)Nc1ccc(-c2c(/C=C/c3ccc4ccccc4n3)nc3c(N4CCOCC4)ccnn23)cc1 [compound 47, (E)-N-(4-(8-Morpholino-2-(2-(quinolin-2-yl)vinyl)imidazo[1,2-b]pyridazin-3-yl)phenyl)methanesulfonamide]	–
4	4	O=C(O)CCC(=O)Nc1ccc(-c2c(CCc3ccc4ccccc4n3)nc3c(N4CCOCC4)ccnn23)cc1 [compound 49, 4-((4-(8-Morpholino-2-(2-(quinolin-2-yl)ethyl)imidazo[1,2-b]pyridazin-3-yl)phenyl)amino)-4-oxobutanoic acid]	–
3	8	CS(=O)(=O)NC(=O)Nc1ccc(-c2c(/C=C/c3ccc4ccccc4n3)nc3c(N4CCOCC4)ccnn23)cc1 [compound 50, (E)-N-((4-(8-Morpholino-2-(2-(quinolin-2-yl)vinyl)imidazo[1,2-b]pyridazin-3-yl)phenyl)carbamoyl)methanesulfonamide]	–
33	41	OC(c1ccc(-c2c(CCc3ccc4ccccc4n3)nc3c(N4CCOCC4)ccnn23)cc1)(C(F)(F)F)C(F)(F)F [compound 53, 1,1,1,3,3,3-Hexafluoro-2-(4-(8-morpholino-2-(2-(quinolin-2-yl)ethyl)imidazo[1,2-b]pyridazin-3-yl)phenyl)propan-2-ol]	–
< 1	< 1	O=C(O)c1ccc(-c2c(CCc3ccc4ccccc4n3)nc3c(N4CCOCC4)ccnn23)o1 [compound 60, 5-(8-Morpholino-2-(2-(quinolin-2-yl)ethyl)imidazo[1,2-b]pyridazin-3-yl)furan-2-carboxylic acid]	–
< 1	< 1	O=C(O)c1ccc(-c2c(CCc3ccc4ccccc4n3)nc3c(N4CCOCC4)ccnn23)s1 [compound 61, 5-(8-Morpholino-2-(2-(quinolin-2-yl)ethyl)imidazo[1,2-b]pyridazin-3-yl)thiophene-2-carboxylic acid]	–
3	3	O=C(O)c1ccc(-c2c(/C=C/c3ccc4ccccc4n3)nc3c(N4CCOCC4)ccnn23)cc1O [compound 63, (E)-2-Hydroxy-4-(8-morpholino-2-(2-(quinolin-2-yl)vinyl)imidazo[1,2-b]pyridazin-3-yl)benzoic acid]	–
2	1	O=C(O)c1ccc(-c2c(CCc3ccc4ccccc4n3)nc3c(N4CCOCC4)ccnn23)cc1O [compound 64, 2-Hydroxy-4-(8-morpholino-2-(2-(quinolin-2-yl)ethyl)imidazo[1,2-b]pyridazin-3-yl)benzoic acid]	–
4	6	COc1cc(-c2c(CCc3ccc4ccccc4n3)nc3c(N4CCOCC4)ccnn23)ccc1C(=O)O [compound 69, 2-Methoxy-4-(8-morpholino-2-(2-(quinolin-2-yl)ethyl)imidazo[1,2-b]pyridazin-3-yl)benzoic acid]	–
2	< 1	Oc1c(F)cc(-c2c(/C=C/c3ccc4ccccc4n3)nc3c(N4CCOCC4)ccnn23)cc1F [compound 80, (E)-2,6-Difluoro-4-(8-morpholino-2-(2-(quinolin-2-yl)vinyl)imidazo[1,2-b]pyridazin-3-yl)phenol]	–
4	1	Oc1c(F)cc(-c2c(CCc3ccc4ccccc4n3)nc3c(N4CCOCC4)ccnn23)cc1F [compound 81, 2,6-Difluoro-4-(8-morpholino-2-(2-(quinolin-2-yl)ethyl)imidazo[1,2-b]pyridazin-3-yl)phenol]	–
2	< 1	O=C(O)CCNC(=O)c1ccc(-c2c(C#Cc3ccc4ccccc4n3)nc3c(N4CCOCC4)ccnn23)cc1 [compound 82, 3-(4-(8-Morpholino-2-(quinolin-2-ylethynyl)imidazo[1,2-b]pyridazin-3-yl)benzamido)propanoic acid]	–
< 1	< 1	COc1cc(-c2c(C#Cc3ccc4ccccc4n3)nc3c(N4CCOCC4)ccnn23)ccc1C(=O)O [compound 91, 2-Methoxy-4-(8-morpholino-2-(quinolin-2-ylethynyl)imidazo[1,2-b]pyridazin-3-yl)benzoic acid]	–
5	4	O=C(O)c1ccc(-c2c(/C=C/c3ccc4ccccc4n3)nc3c(N4CCOCC4)ccnn23)cn1 [compound 92, (E)-5-(8-Morpholino-2-(2-(quinolin-2-yl)vinyl)imidazo[1,2-b]pyridazin-3-yl)picolinic acid]	–
3	3	COc1cc(C(=O)O)ccc1-c1c(/C=C/c2ccc3ccccc3n2)nc2c(N3CCOCC3)ccnn12 [compound 98, (E)-3-Methoxy-4-(8-morpholino-2-(2-(quinolin-2-yl)vinyl)imidazo[1,2-b]pyridazin-3-yl)benzoic acid]	–
2	2	O=C(O)c1ccc(-c2c(/C=C/c3ccc4ccccc4n3)nc3c(N4CCOCC4)ccnn23)nc1 [compound 113, (E)-6-(8-Morpholino-2-(2-(quinolin-2-yl)vinyl)imidazo[1,2-b]pyridazin-3-yl)nicotinic acid]	–
4	3	CS(=O)(=O)NC(=O)C1CCN(c2c(/C=C/c3ccc4ccccc4n3)nc3c(N4CCOCC4)ccnn23)CC1 [compound 153, (E)-N-(Methylsulfonyl)-1-(8-morpholino-2-(2-(quinolin-2-yl)vinyl)imidazo[1,2-b]pyridazin-3-yl)piperidine-4-carboxamide]	–
28	72	C(=C\c1nc2c(N3CCOCC3)ccnn2c1N1CCCCC1)/c1ccc2ccccc2n1 [compound 154, (E)-4-(3-(Piperidin-1-yl)-2-(2-(quinolin-2-yl)vinyl)imidazo[1,2-b]pyridazin-8-yl)morpholine]	–
3	5	O=C(O)CCC(=O)N1CCN(c2c(/C=C/c3ccc4ccccc4n3)nc3c(N4CCOCC4)ccnn23)CC1 [compound 155, (E)-4-(4-(8-Morpholino-2-(2-(quinolin-2-yl)vinyl)imidazo[1,2-b]pyridazin-3-yl)piperazin-1-yl)-4-oxobutanoic acid]	–
6	6	C(=C\c1nc2c(N3CCOCC3)ccnn2c1-c1ccc(-c2nnn[nH]2)cc1)/c1ccc2ccccc2n1 [compound 176, (E)-4-(3-(4-(1H-Tetrazol-5-yl)phenyl)-2-(2-(quinolin-2-yl)vinyl)imidazo[1,2-b]pyridazin-8-yl)morpholine]	–
